“Also recorded” adds a separate entry of the source. Like-named read-outs stand apart in the source and are kept apart here. One block for each compound: values may come before it.
How the values were obtained:
HDAC [1] = tested on: T1, HDAC; test: in vitro HDAC inhibitory activity, HDAC Fluor-Lys as substrate (BIOMOL); format: biochemical; settings: for IC50: read-out: IC50, concentration required to achieve 50% inhibition of HDAC activity
T1 construct: other: HDAC Fluor-Lys substrate; other: at concentrations of 1 μM
Procedure: The in vitro HDAC inhibitory activity of the synthesized compounds was determined by using HDAC Fluor-Lys as the substrate (BIOMOL). […] SAHA was used as a positive control.

HDAC2 = biological target: T2, HDAC2 (Homo sapiens, UniProt Q92769); test: class I HDAC isoform activity, immunoprecipitate from HeLa nuclear extracts; format: biochemical; settings: 0.5 μM of the test compound
T2 construct: endogenous in cells; host or cells: HeLa nuclear extract, immunoprecipitate
Source text: (§1) FIG. 10 depicts the effect of HDAC inhibitors, including selected compounds of the invention, on Class I HDAC isoform activities. Note that (a) denotes that HeLa nuclear extracts were used for immunoprecipitation (IP) with antibodies against HDAC 1-3; and (b) denotes that recombinant protein was used for HDAC 8. Note: TSA is trichostatin A.
(§2) To test whether the modified CAP region of the HDACIs is able to target specific HDAC isoform enzyme activity, the compounds were examined for class I HDAC isoform inhibitory activities using recombinant HDAC8 and immunoprecipitates of the other HDAC isoforms (HDAC 1, 2, 3) using nuclear extracts from HeLa cells. […] The data shown in FIG. 10 represent the HDAC inhibitory activity remaining after addition of 0.5 μM of the test compounds.

HDAC1 = biological target: T3, HDAC1 (Homo sapiens, UniProt Q13547); test: as above; format: biochemical; settings: 0.5 μM of the test compound
T3 construct: endogenous in cells; host or cells: HeLa nuclear extract, immunoprecipitate
Source text: as §1, §2

HDAC3 = biological target: T4, HDAC3 (Homo sapiens, UniProt O15379); test: as above; format: biochemical; settings: after addition of 0.5 μM of the test compound
T4 construct: endogenous in cells; host or cells: HeLa nuclear extract, immunoprecipitate
Source text: as §1, §2

[2] = tested on: prostate cancer (PC-3), breast cancer (MCF-7), cervical cancer (HeLa), squamous carcinoma (SQ-20B); test: antiproliferative activity in cancer cell lines; format: cell-based; settings: PC-3, MCF-7, HeLa
Procedure: (§3) One of characteristics of the HDAC inhibitors relates to their ability to inhibit the growth of transformed cells. The compounds capable of modifying histones in the cell were tested for their biological effects.

HDAC8 = biological target: T5, HDAC8 (Homo sapiens, UniProt Q9BY41); test: class I HDAC isoform activity, recombinant protein; format: biochemical; settings: after addition of 0.5 μM of the test compound
T5 sequence (Q9BY41 1-377): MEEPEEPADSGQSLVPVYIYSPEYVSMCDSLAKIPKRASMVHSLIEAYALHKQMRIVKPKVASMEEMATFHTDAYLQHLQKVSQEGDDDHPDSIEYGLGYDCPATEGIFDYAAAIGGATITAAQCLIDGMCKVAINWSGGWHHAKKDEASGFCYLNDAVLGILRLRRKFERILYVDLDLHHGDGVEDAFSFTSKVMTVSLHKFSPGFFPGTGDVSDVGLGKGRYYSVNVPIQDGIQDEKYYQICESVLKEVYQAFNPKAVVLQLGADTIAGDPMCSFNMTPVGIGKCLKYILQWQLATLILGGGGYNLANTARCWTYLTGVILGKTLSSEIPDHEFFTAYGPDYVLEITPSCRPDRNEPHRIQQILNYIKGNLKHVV
Source text: as §1, §2

[3] = tested on: human normal primary skin fibroblasts (Hs-68); test: growth inhibition of normal cells Hs-68; format: cell-based; settings: Hs68
Procedure: as §3

[4] = tested on: human normal fibroblasts (NHP-5); test: growth inhibition of normal cells NHP-5; format: cell-based; settings: Fibroblast
Procedure: as §3

[5] = tested on: mouse model of Huntington's disease; settings: cited from earlier work
Plasmodium falciparum = settings: human malaria parasite Plasmodium falciparum; cited from earlier work
HDAC 1, 2, 3 and HDAC8 = test: class I HDAC isoform panel, comparison across isoforms; format: biochemical; settings: 0.5 μM of the test compound; HDAC 1, 2, 3, 8
Source text: as §1, with “8.” for “8. Note: TSA is trichostatin A.”

HDAC [6] = settings: read-out: reported IC50; literature value; cited from earlier work

T2 sequence (Q92769 whole entry, canonical isoform): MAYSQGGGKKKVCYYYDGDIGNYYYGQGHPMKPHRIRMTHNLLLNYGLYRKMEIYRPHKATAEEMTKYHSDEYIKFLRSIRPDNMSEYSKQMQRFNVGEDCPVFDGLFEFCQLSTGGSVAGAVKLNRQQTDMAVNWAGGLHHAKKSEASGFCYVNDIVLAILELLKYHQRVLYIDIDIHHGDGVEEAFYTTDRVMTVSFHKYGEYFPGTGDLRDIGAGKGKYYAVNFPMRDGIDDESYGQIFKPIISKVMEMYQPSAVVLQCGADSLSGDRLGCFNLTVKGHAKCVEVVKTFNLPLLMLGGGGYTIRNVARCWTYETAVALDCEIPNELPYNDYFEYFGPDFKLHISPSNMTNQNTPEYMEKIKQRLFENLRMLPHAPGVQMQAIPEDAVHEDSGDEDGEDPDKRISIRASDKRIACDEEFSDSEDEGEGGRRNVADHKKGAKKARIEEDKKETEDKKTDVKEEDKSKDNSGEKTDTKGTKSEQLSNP
T3 sequence (Q13547 whole entry): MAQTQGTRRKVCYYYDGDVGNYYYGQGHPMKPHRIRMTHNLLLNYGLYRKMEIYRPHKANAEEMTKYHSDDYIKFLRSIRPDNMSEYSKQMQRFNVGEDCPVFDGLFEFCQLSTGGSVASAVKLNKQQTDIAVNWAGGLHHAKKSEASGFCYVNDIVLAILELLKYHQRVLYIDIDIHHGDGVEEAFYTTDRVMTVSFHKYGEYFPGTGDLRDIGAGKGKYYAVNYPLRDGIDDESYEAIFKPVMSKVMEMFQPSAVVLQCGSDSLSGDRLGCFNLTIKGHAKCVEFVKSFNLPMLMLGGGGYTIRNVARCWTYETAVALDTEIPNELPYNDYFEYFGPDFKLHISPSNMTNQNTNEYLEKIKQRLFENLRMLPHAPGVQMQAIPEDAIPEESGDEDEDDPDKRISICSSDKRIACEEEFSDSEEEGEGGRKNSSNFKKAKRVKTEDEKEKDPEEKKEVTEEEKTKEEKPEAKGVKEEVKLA
T4 sequence (O15379 whole entry): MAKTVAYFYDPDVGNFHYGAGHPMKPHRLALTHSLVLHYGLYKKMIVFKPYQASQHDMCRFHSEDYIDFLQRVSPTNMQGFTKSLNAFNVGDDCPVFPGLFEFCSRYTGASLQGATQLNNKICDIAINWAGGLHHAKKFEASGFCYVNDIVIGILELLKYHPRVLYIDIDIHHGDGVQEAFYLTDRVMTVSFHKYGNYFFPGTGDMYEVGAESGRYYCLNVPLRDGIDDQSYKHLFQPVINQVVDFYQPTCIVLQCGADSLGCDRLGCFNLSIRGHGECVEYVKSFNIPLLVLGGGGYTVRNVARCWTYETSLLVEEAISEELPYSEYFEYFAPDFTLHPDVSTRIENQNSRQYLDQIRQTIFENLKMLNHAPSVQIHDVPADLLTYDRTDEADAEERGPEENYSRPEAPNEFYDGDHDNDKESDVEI
T4 sequence (Q9Y618 whole entry partner): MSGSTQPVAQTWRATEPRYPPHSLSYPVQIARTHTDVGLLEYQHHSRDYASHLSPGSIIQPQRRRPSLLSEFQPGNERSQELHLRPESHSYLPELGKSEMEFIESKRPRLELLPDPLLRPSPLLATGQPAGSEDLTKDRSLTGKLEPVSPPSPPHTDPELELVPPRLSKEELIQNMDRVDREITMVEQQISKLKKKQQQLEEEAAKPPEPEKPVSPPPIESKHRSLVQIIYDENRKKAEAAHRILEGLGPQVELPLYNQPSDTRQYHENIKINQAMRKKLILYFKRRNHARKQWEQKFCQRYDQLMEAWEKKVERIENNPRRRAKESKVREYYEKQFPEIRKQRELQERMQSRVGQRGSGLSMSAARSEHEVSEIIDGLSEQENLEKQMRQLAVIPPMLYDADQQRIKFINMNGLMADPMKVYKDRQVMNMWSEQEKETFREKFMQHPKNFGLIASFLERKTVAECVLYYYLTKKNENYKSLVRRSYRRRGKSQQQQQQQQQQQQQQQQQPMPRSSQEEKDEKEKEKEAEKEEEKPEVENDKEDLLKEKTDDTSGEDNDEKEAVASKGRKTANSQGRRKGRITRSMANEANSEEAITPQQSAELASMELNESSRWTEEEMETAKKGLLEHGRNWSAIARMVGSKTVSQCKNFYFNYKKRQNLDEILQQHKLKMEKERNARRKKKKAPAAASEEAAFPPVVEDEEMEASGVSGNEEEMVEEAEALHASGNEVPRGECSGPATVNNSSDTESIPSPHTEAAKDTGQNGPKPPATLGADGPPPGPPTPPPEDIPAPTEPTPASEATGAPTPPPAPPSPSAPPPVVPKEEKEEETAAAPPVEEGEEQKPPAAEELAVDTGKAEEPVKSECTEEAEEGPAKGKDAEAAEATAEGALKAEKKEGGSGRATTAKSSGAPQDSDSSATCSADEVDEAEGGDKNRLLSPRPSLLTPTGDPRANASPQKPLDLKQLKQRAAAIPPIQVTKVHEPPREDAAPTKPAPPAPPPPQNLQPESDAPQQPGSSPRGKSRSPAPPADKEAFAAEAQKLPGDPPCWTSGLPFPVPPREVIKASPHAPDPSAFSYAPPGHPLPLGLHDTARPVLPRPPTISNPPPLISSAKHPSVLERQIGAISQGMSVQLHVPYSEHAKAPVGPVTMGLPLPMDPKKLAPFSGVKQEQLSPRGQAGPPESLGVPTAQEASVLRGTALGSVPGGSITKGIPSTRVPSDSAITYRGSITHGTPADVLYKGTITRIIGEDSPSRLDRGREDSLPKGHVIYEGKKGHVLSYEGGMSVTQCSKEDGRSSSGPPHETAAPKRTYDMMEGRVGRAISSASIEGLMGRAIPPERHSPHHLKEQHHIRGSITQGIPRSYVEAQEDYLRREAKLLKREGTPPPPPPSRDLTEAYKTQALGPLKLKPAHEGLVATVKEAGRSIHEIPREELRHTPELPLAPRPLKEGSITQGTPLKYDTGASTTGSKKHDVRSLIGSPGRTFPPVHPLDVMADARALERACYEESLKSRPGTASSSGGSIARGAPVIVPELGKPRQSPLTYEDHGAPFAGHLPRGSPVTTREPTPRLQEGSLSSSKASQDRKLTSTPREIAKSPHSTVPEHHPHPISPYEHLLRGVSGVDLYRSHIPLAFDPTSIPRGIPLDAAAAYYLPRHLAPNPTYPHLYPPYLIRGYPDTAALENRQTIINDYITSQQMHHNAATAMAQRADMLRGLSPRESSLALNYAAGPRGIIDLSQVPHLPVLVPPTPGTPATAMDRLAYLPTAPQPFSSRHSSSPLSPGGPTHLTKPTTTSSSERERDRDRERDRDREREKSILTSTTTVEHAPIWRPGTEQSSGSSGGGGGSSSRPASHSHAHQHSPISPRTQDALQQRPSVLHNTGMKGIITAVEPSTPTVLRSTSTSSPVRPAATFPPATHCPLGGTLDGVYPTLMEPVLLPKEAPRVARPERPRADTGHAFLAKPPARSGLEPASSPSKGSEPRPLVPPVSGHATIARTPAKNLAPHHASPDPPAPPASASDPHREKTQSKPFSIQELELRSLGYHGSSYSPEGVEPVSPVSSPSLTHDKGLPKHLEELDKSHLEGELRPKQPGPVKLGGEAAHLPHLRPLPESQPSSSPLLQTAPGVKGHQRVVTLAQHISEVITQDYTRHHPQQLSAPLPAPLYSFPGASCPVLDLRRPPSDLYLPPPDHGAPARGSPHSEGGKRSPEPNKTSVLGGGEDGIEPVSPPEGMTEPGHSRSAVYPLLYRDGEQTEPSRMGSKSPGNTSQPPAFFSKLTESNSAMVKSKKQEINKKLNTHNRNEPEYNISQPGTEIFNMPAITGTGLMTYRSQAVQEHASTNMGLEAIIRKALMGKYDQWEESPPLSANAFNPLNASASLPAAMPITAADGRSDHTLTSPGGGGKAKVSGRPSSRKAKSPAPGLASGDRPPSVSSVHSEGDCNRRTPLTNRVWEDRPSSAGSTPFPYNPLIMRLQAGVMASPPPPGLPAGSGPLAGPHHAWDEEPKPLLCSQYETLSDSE

IC50 (HDAC [1]): 7000 nM
Compound: NCC(=O)Nc1ccccc1-c1ccc(NC(=O)CCCCCNC(=O)CS)cc1 [10a, 6-(2-mercapto-acetylamino)-hexanoic acid [2′-(2-amino-acetylamino)-biphenyl-4-yl]-amide]

Compound: NC(Cc1ccc(O)cc1)C(=O)Nc1ccccc1-c1ccc(NC(=O)CCCCCNC(=O)CS)cc1 (stereo not drawn) [10e, 6-(2-mercapto-acetylamino)-hexanoic acid {2′-[2-amino-3-(4-hydroxy-phenyl)-propionylamino]-biphenyl-4-yl}-amide]
HDAC inhibitory activity at a fixed concentration (in words) (HDAC [1]; at concentrations of 1 μM): inactive

IC50 (HDAC [1]): 3000 nM
Compound: NC(Cc1ccccc1)C(=O)Nc1ccccc1-c1ccc(NC(=O)CCCCCNC(=O)CS)cc1 (stereo not drawn) [10b, 6-(2-Mercapto-acetylamino)-hexanoic acid [2′-(2-amino-3-phenyl-propionylamino)-biphenyl-4-yl]-amide]

IC50 (HDAC [1]; HDAC Fluor-Lys substrate): 50 nM
Compound: O=C(CCCCCCC(=O)Nc1nc(-c2ccccc2[N+](=O)[O-])cs1)NO [compound 17, octanedioic acid hydroxyamide [4-(2-nitro-phenyl)-thiazol-2-yl]-amide]

IC50 (HDAC [1]; HDAC Fluor-Lys substrate): 50 nM
Compound: NC(Cc1ccc(O)cc1)C(=O)Nc1ccccc1-c1ccc(NC(=O)CCCCCCC(=O)NO)cc1 (stereo not drawn) [7e, octanedioic acid {2′-[2-amino-3-(4-hydroxy-phenyl)-propionylamino]-biphenyl-4-yl}-amide hydroxyamide]

inhibition of HDAC2 activity (in words) (HDAC2): strong tendency to inhibit | inhibition of HDAC1 activity (in words) (HDAC1): strong tendency to inhibit | remaining activity at 0.5 µM (HDAC3): > 30% | remaining activity at 0.5 µM (HDAC8): > 30%
Compound: O=C(CCCCCCC(=O)Nc1nc(-c2cccc([N+](=O)[O-])c2)cs1)NO [compound 19, octanedioic acid hydroxyamide [4-(3-Nitro-phenyl)-thiazol-2-yl]-amide]
antiproliferative / growth inhibitory activity (in words) [2]: submicromolar activity

Compound: NC(Cc1c[nH]c2ccccc12)C(=O)Nc1ccccc1-c1ccc(NC(=O)CCCCCNC(=O)CS)cc1 (stereo not drawn) [10d, 6-(2-mercapto-acetylamino)-hexanoic acid {2′-[2-amino-3-(1H-indol-3-yl)-propionylamino]-biphenyl-4-yl}-amide]
HDAC inhibitory activity at a fixed concentration (in words) (HDAC [1]): inactive

Compound: O=C(CCCCCCC(=O)Nc1ccc(-c2ccccc2NC(=O)C2CCCN2)cc1)NO (stereo not drawn) [7c, octanedioic acid hydroxyamide {2′-[(pyrrolidine-2-carbonyl)-amino]-biphenyl-4-yl}-amide]
HDAC inhibitory activity (in words) (HDAC [1]; HDAC Fluor-Lys substrate): approximately equipotent in their activity to SAHA

Compound: NC(Cc1ccccc1)C(=O)Nc1ccccc1-c1ccc(NC(=O)CCCCCCC(=O)NO)cc1 (stereo not drawn) [7b, octanedioic acid [2′-(2-amino-3-phenyl-propionylamino)-biphenyl-4-yl]-amide hydroxyamide]
IC50 [3]: > 300000 nM | antiproliferative / growth inhibitory activity (in words) [2]: good growth inhibitory activity | IC50 [4]: 80000 nM | HDAC inhibitory activity (in words) (HDAC [1]): approximately equipotent in their activity to SAHA

Compound: Nc1ccccc1-c1csc(NC(=O)CCCCCCC(=O)NO)n1 [compound 16, octanedioic acid hydroxyamide [4-(2-amino-phenyl)-thiazol-2-yl]-amide]
HDAC inhibitory activity (in words) (HDAC [1]; HDAC Fluor-Lys substrate): poorly active

IC50 (HDAC [1]; HDAC Fluor-Lys substrate): 5 nM
Compound: CCOC(=O)Nc1cccc(-c2csc(NC(=O)CCCCCCC(=O)NO)n2)c1 [compound 22, {3-[2-(7-hydroxycarbamoyl-heptanoylamino)-thiazol-4-yl]-phenyl}-carbamic acid ethyl ester]
antiproliferative / growth inhibitory activity (in words) [2]: submicromolar activity; also recorded: impressive antiproliferative activity | potency relative to trichostatin A (HDAC [1]; IC50 compared with reported IC50 of trichostatin A): approximately two-fold

Compound: O=C(CCCCCCC(=O)Nc1ccccc1)NO [SAHA, suberoylanilide hydroxamic acid]
motor impairment ([5]; mouse model of Huntington's disease): improve dramatically the motor impairment | brain penetration ([5]; mouse, in vivo): penetrate into the brain

Compound: COc1ccc(CCN(C)CCCC(C#N)(c2ccc(OC)c(OC)c2)C(C)C)cc1OC (stereo not drawn) [Verapamil]
reversal of chloroquine resistance (Plasmodium falciparum): reverse chloroquine resistance

Compound: trichostatin A
class I HDAC isoform inhibitory activity and selectivity (in words) (HDAC 1, 2, 3 and HDAC8): more effective for inhibiting HDACs 1 and 2 | IC50 (HDAC [6]): 12 nM

IC50 (HDAC [1]; HDAC Fluor-Lys substrate): 200 nM
Compound: NCC(=O)Nc1ccccc1-c1ccc(NC(=O)CCCCCCC(=O)NO)cc1 [7a, octanedioic acid [2′-(2-amino-acetylamino)-biphenyl-4-yl]-amide hydroxyamide]
IC50 [3]: > 500000 nM | IC50 [4]: > 500000 nM

inhibition of HDAC2 activity (in words) (HDAC2): strong tendency to inhibit | inhibition of HDAC1 activity (in words) (HDAC1): strong tendency to inhibit | remaining activity at 0.5 µM (HDAC3): > 30% | IC50 (HDAC [1]; HDAC Fluor-Lys substrate): 8 nM | remaining activity at 0.5 µM (HDAC8): > 30%
Compound: Nc1cccc(-c2csc(NC(=O)CCCCCCC(=O)NO)n2)c1 [compound 23, octanedioic acid hydroxyamide [4-(3-amino-phenyl)-thiazol-2-yl]-amide]
antiproliferative / growth inhibitory activity (in words) [2]: submicromolar activity

Compound: NC(Cc1c[nH]c2ccccc12)C(=O)Nc1ccccc1-c1ccc(NC(=O)CCCCCCC(=O)NO)cc1 (stereo not drawn) [7d, octanedioic acid {2′-[2-amino-3-(1H-indol-3-yl)-propionylamino]-biphenyl-4-yl}-amide hydroxyamide]
IC50 [4]: 100000 nM | IC50 (HDAC [1]): 30 nM

Reference: patent US8653278B2, “Isoform selective HDAC inhibitors” (Georgetown University, priority 2006, dated 2014)
